These results are taken from US20260166097A1, “METHODS AND COMPOSITIONS CONCERNING BACTEROIDES OVATUS” (BOARD OF REGENTS, THE UNIVERSITY OF TEXAS SYSTEM, priority 2022, published 2026).

Data set [1] has as its system steroid-refractory GVHD. The following applies: human, in vivo.
Description: The inventors examined patient antibiotic treatment histories during the period from allo-HSCT to the onset of aGI-GVHD and looked for associations between treatment with various antibiotic classes and steroid response for GVHD (FIG. 3A). In our institution, quinolone, cephalosporine, carbapenem and intravenous vancomycin were frequently used in our cohort (FIG. 3B).
A total of 37 aGI-GVHD patients who underwent allo-HSCT during 2017 to 2019 at MD Anderson Cancer Center provided stool samples for the biorepository, and these patient stool samples were analyzed retrospectively as a discovery cohort. Acute GVHD was diagnosed by clinical and/or pathological findings and graded according to standard criteria^40. […] The inventors determined treatment response as previously reported^19: briefly, a lack of response on the basis of organ assessment after at least 3 days of high-dose systemic glucocorticoid therapy; a lack of improvement after 7 days; or treatment failure during steroid tapering or an inability to taper the dose to <0.5 mg/kg/day of methylprednisolone. […] As another cohort, a total of 16 aGI-GVHD patients who underwent allo-HSCT during 2017 to 2020 at MD Anderson Cancer Center provided stool samples collected on day 14 after allo-HSCT for the biorepository, and these patient stool samples were analyzed retrospectively. […]
For data set [2], the system named is allo-HSCT mice. The following applies: cited from earlier work.

As to `CCCCCCCCCC(=O)N[C@@H](Cc1c[nH]c2ccccc12)C(=O)N[C@H](CC(N)=O)C(=O)N[C@@H](CC(=O)O)C(=O)N[C@@H]1C(=O)NCC(=O)N[C@@H](CCCN)C(=O)N[C@@H](CC(=O)O)C(=O)N[C@H](C)C(=O)N[C@@H](CC(=O)O)C(=O)NCC(=O)N[C@H](CO)C(=O)N[C@@H]([C@H](C)CC(=O)O)C(=O)N[C@@H](CC(=O)c2ccccc2N)C(=O)O[C@@H]1C` [daptomycin], the “Association of antibiotic exposure with steroid-refractory GVHD” value in data set [1] is “significantly associated with steroid-refractory GVHD”.
Consider `C[C@@H](O)[C@H]1C(=O)N2C(C(=O)O)=C(S[C@@H]3CN[C@H](C(=O)N(C)C)C3)[C@H](C)[C@H]12` [meropenem], for which the “Colonic GVHD severity” value in data set [2] (allo-HSCT mice treated with meropenem in drinking water compared to mice not treated) is on record as “aggravated colonic GVHD”.
In the case of `O=C[C@H](O)[C@@H](O)[C@H](O)CO` [xylose], the GVHD severity result in data set [2] (supplementation in meropenem-treated allogeneic mice) is reported as “ameliorates GVHD severity”.
